Molecular target: T1, Sav2152 (Staphylococcus aureus, UniProt A0A0H3JWK0)
T1 construct: monomer; C-terminus (res. 234-285) disordered in crystal
Test: EnzChek phosphatase assay, DiFMU release
Assay type: biochemical
Settings: 100 uM DiFMUP, 10 uM protein, 1 mM Mg2+, 100 mM NaCl, 25 mM Tris-HCl pH 7.0

T1 sequence (A0A0H3JWK0 entry or part of it): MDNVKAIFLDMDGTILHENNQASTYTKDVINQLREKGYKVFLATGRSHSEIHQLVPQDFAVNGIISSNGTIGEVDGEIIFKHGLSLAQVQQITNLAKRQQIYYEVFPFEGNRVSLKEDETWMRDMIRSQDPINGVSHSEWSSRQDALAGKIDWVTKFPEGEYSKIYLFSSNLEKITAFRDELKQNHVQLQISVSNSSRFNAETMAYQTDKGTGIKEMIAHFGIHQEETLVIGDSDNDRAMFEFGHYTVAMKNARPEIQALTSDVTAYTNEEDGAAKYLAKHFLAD

Cc1cc(=O)oc2c(F)c(OP(=O)(O)O)c(F)cc12 [DiFMUP]
EnzChek phosphatase assay, DiFMU release: enzymatic activity of this protein was investigated using a simple phosphatase assay kit with DiFMUP

Reference: PMC11084212, “Nontraditional Roles of Magnesium Ions in Modulating Sav2152: Insight from a Haloacid Dehalogenase-like Superfamily Phosphatase from Staphylococcus aureus” (International Journal of Molecular Sciences, 2024)
